This note sets out measurements from publication PMC9822133, “Design, Synthesis and Antiproliferative Evaluation of Bis-Indole Derivatives with a Phenyl Linker: Focus on Autophagy” (Molecules, 2022).

Holding throughout (assay type): cell-based, human
The test system of assay [1] is glutathione peroxidase (GPx). Kind of assay: GPx activity in treated A549 cells. The note with it: A549, 20 µM. From the text: Glutathione is an important intracellular molecule involved in carcinogen detoxification. On the other hand, its elevated state in cancer cells is often associated with resistance to chemotherapy. […] Because high levels of GSH are associated with cancer cell resistance, the GHS-depleting effect of compound 49 could be interesting due to new cancer chemosensitizer development. In the case of GST and GR, we hypothesize that an increase in the activity of both enzymes may be a compensatory mechanism induced by GSH depletion.
Both floating and adherent A549 cells were harvested at 24, 48, and 72 h after treatment with compound 49 (20 µM). SOD determination kit, Glutathione Peroxidase Cellular Activity Assay kit, Glutathione Reductase Assay Kit and Glutathione-S-transferase (GST) Assay Kit (all Sigma Aldrich, Germany) were used for the detection of relevant enzyme activity. Reduced glutathione (GSH) content was measured by the method originally described by Floreani et al.. Assays were performed on an M 501 single beam UV/VIS spectrophotometer (Spectronic Camspec Ltd., Leeds, United Kingdom). All measured parameters were calculated per milligram or gram of protein determined using the bicinchoninic acid assay.

A further assay concerns p62/SQSTM1. The assay is described as follows: Western blot, p62. The note with it: A549, 24, 48, 72 h, p < 0.001 vs DMSO. An excerpt: Protein p62, also known as sequestosome 1, is a multifunctional, classic autophagy receptor, considered together with LC3AB as an important marker of ongoing autophagic flux. It is involved in cell signaling, metabolism, oxidative stress and cell death. Its main function is the degradation of misfolded proteins through the ubiquitin–proteasome system (UPS) and autophagy, thereby maintaining intracellular proteostasis. P62 binds the autophagosomal membrane protein LC3 and brings p62-containing cytoplasmic contents to the autophagosome for degradation. […] This protein is normally degraded during autophagy after interaction with LC3 II [26]. On the other hand, accumulation of p62 has also been cited in cancer cells exposed to a variety of potential anticancer compounds [27, 28, 29].
(§1) A549 cells were seeded on Petri dishes (55 cm^2) at a density of 1 × 10^6 and allowed to culture in the medium. After 24 h, the test substance was added, and the cells were incubated for 24, 48 and 72 h. […] After lysis, the cells were sonicated, and the protein concentration in the samples was quantified using the Pierce® BCA Protein Assay Kit (Thermo Scientific, Rockford, IL, USA) and measured by an automated Cytation™ 3 Cell Imaging Multi-Mode Reader (Biotek) at a wavelength of 570 nm. […]

A further assay relates to Phospho-ULK Ser555. The assay is described as follows: Western blot, phospho-ULK1 Ser555. The note with it: A549, all time periods, mostly after 24 and 48 h.
Description: ULK1/AMPK. ULK1 is a serine/threonine protein kinase. The ULK1 complex controls the formation of the phagophore, the initial autophagosomal precursor membrane structure. Upon induction of autophagy, the ULK1 complex translocates to autophagy initiation sites and regulates the recruitment of a second kinase complex, VPS34. ULK1 can be inhibited by phosphorylation by mammalian target of rapamycin complex 1 (mTORC1) or activated after AMP-activated protein kinase (AMPK) phosphorylation. Under conditions of nutrient deficiency, AMPK is activated, which directly activates ULK1. The kinase is phosphorylated, i.e., activated by an increased AMP/ATP ratio due to cellular and environmental stress. AMPK also inactivates mTORC1 and thus blocks its inhibitory action on autophagy activation.
as §1

Turning to `CC(C)(C)OC(=O)n1cc(CNC(=O)Nc2ccc(NC(=O)NCc3cn(C(=O)OC(C)(C)C)c4ccccc34)cc2)c2ccccc21` [Compound 49, N,N′-(1,4-phenylene)bis{N′-[1-(tert-butoxycarbonyl)indol-3-yl]methyl (urea)}], the GPx in assay [1] (24 h) is on record as 0.148 ± 0.021 μkat/mg Prot; in assay [1] (48 h), 0.139 ± 0.028 μkat/mg Prot; in assay [1] (72 h), 0.077 ± 0.038 μkat/mg Prot. Also, the p62 expression entry in the assay with p62/SQSTM1 is “significant increase”. The “phosphorylated form of ULK1 at Ser555” value in the assay with Phospho-ULK Ser555 is “significant upregulation”.
